{"source": "patent US20200170998A1", "about": "“UMBILICAL CORD BLOOD SERUM AND UMBILICAL CORD BLOOD PLASMA PREPARATION IN COMBINATION WITH A NONSTEROIDAL ANTI-INFLAMMATORY DRUG AND FREEZE-DRYING THE COMPOSITION” (CELLULA LLC, priority 2018, published 2020)", "origin": "cited, not measured here", "data": [{"system": "corneal epithelial cells", "conditions": "in-vitro; control a balanced salt solution", "values": [{"smiles": "Nc1c(CC(=O)O)cccc1C(=O)c1ccc(Br)cc1", "note": "[bromfenac]", "toxicity on corneal epithelial cells": "less cellular damage and showed no difference with the control"}, {"smiles": "O=C(O)Cc1ccccc1Nc1c(Cl)cccc1Cl", "note": "[Diclofenac]", "toxicity on corneal epithelial cells": "significant cellular toxicity"}, {"smiles": "CC(=O)[C@@]1(O)CC[C@H]2[C@@H]3C[C@H](C)C4=CC(=O)C=C[C@]4(C)[C@@]3(F)[C@@H](O)C[C@@]21C", "note": "[Flourometholone]", "toxicity on corneal epithelial cells": "most severe toxicity"}, {"smiles": "CC(C(=O)O)c1ccc2c(c1)Cc1cccnc1O2", "note": "(stereo not shown) [pranoprofen]", "toxicity on corneal epithelial cells": "less cellular damage and showed no difference with the control"}]}]}
